Paper PMC12139501, “Acetyl-11-keto-β-boswellic acid alleviates hepatic metabolic dysfunction by inhibiting MGLL activity” (Journal of Lipid Research, 2025)
pKd: −log10 of the molar value.

Key:
[1] = molecular target: T1, monoacylglycerol lipase (MGLL) (Mus musculus, UniProt O35678); test: LC-MS 2-oleoylglycerol hydrolysis assay in hepatocyte lysate, […]; type: cell-based; set-up: endogenous or adenovirus-overexpressed MGLL in primary hepatocyte homogenate
T1 sequence (O35678 1-303): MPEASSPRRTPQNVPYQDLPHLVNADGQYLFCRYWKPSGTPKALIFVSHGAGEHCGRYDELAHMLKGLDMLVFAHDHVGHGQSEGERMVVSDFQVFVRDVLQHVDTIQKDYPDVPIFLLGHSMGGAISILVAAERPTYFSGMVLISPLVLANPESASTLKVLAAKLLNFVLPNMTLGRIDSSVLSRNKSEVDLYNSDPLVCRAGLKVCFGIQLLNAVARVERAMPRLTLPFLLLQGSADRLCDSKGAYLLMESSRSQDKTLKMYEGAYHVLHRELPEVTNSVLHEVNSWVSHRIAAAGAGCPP

[2] = molecular target: T1, monoacylglycerol lipase (MGLL); test: ITC with purified MGLL; supported by pull-down and LC-MS activity assay in hepatocyte lysate; type: binding; set-up: N-terminal 6×His fusion protein of the mouse MGLL domain

SMILES	LC-MS 2-oleoylglycerol hydrolysis assay in hepatocyte lysate, 50 μM [1]	pKd [2]
COC(=O)[C@]1(C)CC[C@]2(C)CC[C@]3(C)C4=CC=C5C(=CC(=O)C(O)=C5C)[C@]4(C)CC[C@@]3(C)[C@@H]2C1 [pristimerin]	both AKBA and pristimerin significantly reduced MGLL activity in wild-type primary hepatocytes as well as in those overexpressing MGLL	
CC(=O)O[C@@H]1CC[C@@]2(C)[C@@H](CC[C@]3(C)[C@@H]2C(=O)C=C2[C@@H]4[C@@H](C)[C@H](C)CC[C@]4(C)CC[C@]23C)[C@@]1(C)C(=O)O [AKBA]		4.39
